Assay results reported in patent US20030061759A1, “Method for expelling harmful insects by volatilization of a chemical” (FUMAKILLA LIMITED, priority 2000, published 2003).
Where two headings read alike, the source gives them in different places. Values belong to the compound of their own block, whether it stands above or below them.

Tests used:
[1] = system: female adult stegomyia mosquitoes (Aedes albopictus); assay: Comparative debugging efficaciousness tests: bloodsucking prevention on rats, liquid type electric mosquito repellent utensil; format: in vivo; settings: for Potency Ratio (Etoc 100), of IC50 Value / Potency Ratio (Etoc 100), of IC90 Value: relative to d,d-T80-prallethrin (Etoc) = 100; for IC50 Value (amount of volatilization at a 50% rate of bloodsucking prevention) / IC90 Value (amount of volatilization at a 90% rate of bloodsucking prevention): 13.2 m^2 room, 32° C., 30 min pre-fumigation, 2 hours after release, rats; for efficacy of preventing mosquitoes from bloodsucking rats compared with transfluthrin: comparison in words
Procedure: First, debugging efficaciousness tests were performed. For the criterion of judgment to compare degrees of efficaciousness, the effect of bloodsucking by mosquitoes of rats was adopted. Based on this, the following efficaciousness tests were carried out.
Comparative Debugging Efficaciousness Tests
Sample chemicals that were used were as follows: d,d-T80-prallethrin, transfluthrin, d1,d-T80-allethrin, d-T80-furamethrin, terallethrin and empenthrin; and pyrethroid technical products (sample chemicals) A, B, C, D, E, F, G and H.
Sample insects that were used were as follows: female adult stegomyia mosquitoes (Aedes albopictus) of Fumakilla (spelled phonetically) series 6th to 9th after emergence.
Sample chemical volatilizing form: A liquid type electric mosquito repellent utensil, a liquid agent (referred to below as “sample liquid”), obtained by diluting each of the sample chemicals with a solvent in a varying concentration, was allowed to volatilize.
Method used for tests: A test was conducted in two 8 straw mat (13.2 m^2) rooms, one as a treatment zone and the other as a non-treatment zone, both in a no-wind state and at a constant room temperature of 32° C.
In the treatment zone, three cages each with a rat confined therein were placed equidistantly spaced apart (about 20 cm) in the center of the test room. The mosquito repellent utensil placed on the floor surface of the center of the test room was preliminarily electrically energized for operation, and to thermally volatilize each of the sample liquids and fumigate the room therewith for a period of 30 minutes, and then about 100 (one hundred) of sample mosquitoes were released into the test room. After two hours following the release of the mosquitoes, all these sample mosquitoes were knocked-down by using a mosquito repellent mat, and the number of the mosquitoes which had bloodsucking was counted to find the proportion of bloodsucking.
In the non-treatment zone, also, after the 2 hours of bloodsucking, the proportion of bloodsucking was found.
A rate of bloodsucking prevention was derived from the proportions of bloodsucking in the treatment and non-treatment rooms as expressed by the following equation:
Rate of bloodsucking prevention =[(Total bloodsucking proportion in the non-treatment zone−Total bloodsucking proportion in the treatment zone)÷Total bloodsucking proportion in the non-treatment zone]×100
Also, on the basis of these amounts of volatilization and rates of bloodsucking prevention, an amount of volatilization at a 50% rate of bloodsucking prevention (IC50 value) and an amount of volatilization at a 90% rate of bloodsucking prevention (IC90 value) are found and shown in Table 1 below.

[2] = system: female adult common house mosquitoes (Culex pipiens pallens); assay: Example 1: spontaneous volatilization efficaciousness test in 33 m^3 room (knockdown, KT50); format: in vivo
Description: Using sample chemicals A, B and C screened out by the preliminary tests, the efficaciousness of each of them when allowed to volatilize spontaneously was compared with that of transfluthrin when allowed to volatilize spontaneously.
Sample Preparations (Chemicals and Their Carriers According to the Present Invention):
(§1) A non-woven polypropylene fabric (made by Idemitsu Petroleum Chemicals Co., Ltd., product name RW2100, density 100 grams/m^2) of 50 cm×40 cm was coated with a hexane solution of 100 milliliter containing 1% (W/V) sample chemicals A, B, C and left to dry for 24 hours (effective amount of chemical: 1000 milligrams).
Comparative Preparation (Chemical and its Carrier):
as §1, with “of transfluthrin” for “sample chemicals A, B, C”
Testing Method: Efficaciousness Tests in an 8 Straw Mat room with a volume of 33 m^3
In the center of the test room with a volume of 33 m^3 (3.65 m×3.65 m×2.5 m high), each chemical carrier as prepared as above was placed as hung on a hook suspended in the center of the room to let the corresponding chemical volatilize spontaneously for a period of 3 hours. Thereafter, a triangular net casing (20 cm×20 cm×16.4 cm high) of 16 mesh nylon net containing 10 (ten) female adult common house mosquitoes (Culex pipiens pallens) was placed as hung in an area at each of the four corners (spaced from the wall surfaces at a distance of 90 cm) at a height of 150 cm from the room floor and was exposed to the chemical atmosphere.
A test was also conducted likewise for the comparative carrier.
After the tests ended, the samples chemicals were let to volatilize spontaneously in the room having a constant temperature of 30° C. The same test was repeated at given intervals and efficaciousness was then examined each time.

[3] = Comparative vapor pressure tests by gas chromatography; format: physicochemical
Procedure: 2. Comparative Vapor Pressure Tests
Next, by using gas chromatography, the various chemicals including sample chemicals A, B and C screened out by the foregoing comparative debugging efficaciousness tests were compared with d,d-T80-prallethrin (Etoc) as regards to their vapor pressures.
The gas chromatography test included as its temperature conditions an initial temperature of 60° C., and a temperature rise of 5° C. per minute up to a maximum temperature of 250° C., which was held for a period of 5 minutes, whereupon the process ended.
The filler used was made up of methyl silicon polymer, which is non-polar.
It should also be noted that as an internal standard substance use was made of sebacic acid-n-butyl and which was added to confirm that there was no deviation in retention time from one test to another.
Retention times for the various chemicals are listed in Table 2 in the order of shorter to longer.

[4] = 60° C. initial, 5° C. per minute up to 250° C., non-polar methyl silicon polymer filler

SMILES: COc1c(F)c(F)c(COC(=O)C2C(C=C(Cl)Cl)C2(C)C)c(F)c1F (stereo not shown) [Sample Chemical D, 2,3,5,6-tetrafluoro-4-methoxybenzyl 3-(2,2-dichlorovinyl)-2,2-dimethylcyclopropanecarboxylate]
Potency Ratio (Etoc 100), of IC50 Value [1]: 17.5 | Potency Ratio (Etoc 100), of IC90 Value [1]: 21.3

SMILES: C#CC(OC(=O)C1C(C=C(Cl)Cl)C1(C)C)C(F)=CCC (stereo not shown) [Sample Chemical B, 1-ethnyl-2-fluoro-2-pentenyl 3-(2,2-dichlorovinyl)-2,2-dimethylcyclopropanecarboxylate]
IC50 Value (amount of volatilization at a 50% rate of bloodsucking prevention) [1]: 0.0047 mg/h | IC90 Value (amount of volatilization at a 90% rate of bloodsucking prevention) [1]: 0.0083 mg/h | efficacy of preventing mosquitoes from bloodsucking rats compared with transfluthrin [1]: more efficacious than transfluthrin | Potency Ratio (Etoc 100), of IC50 Value [1]: 172.3 | Potency Ratio (Etoc 100), of IC90 Value [1]: 469.9 | potency and retention of potency compared with transfluthrin ([2]; comparison in words): higher in potency and also longer in retention time than transfluthrin | KT50 ([2]; elapsed time 0 hr): 8.64 min | KT50 ([2]; elapsed time 168 hr): 7.53 min | KT50 ([2]; elapsed time 336 hr): 7.77 min | KT50 ([2]; elapsed time 504 hr): 7.48 min | KT50 ([2]; elapsed time 672 hr): 6.45 min | KT50 ([2]; elapsed time 864 hr): 7.90 min | KT50 ([2]; elapsed time 1056 hr): 8.00 min | KT50 ([2]; elapsed time 1200 hr): 8.00 min | KT50 ([2]; elapsed time 1344 hr): 8.40 min | KT50 ([2]; elapsed time 1536 hr): 8.60 min | KT50 ([2]; elapsed time 1680 hr): 9.60 min | KT50 ([2]; elapsed time 1848 hr): 10.40 min | KT50 ([2]; elapsed time 2016 hr): 9.87 min | KT50 ([2]; elapsed time 2208 hr): 11.70 min | KT50 ([2]; elapsed time 2352 hr): 10.80 min | KT50 ([2]; elapsed time 2520 hr): 12.00 min | KT50 ([2]; elapsed time 2688 hr): 12.70 min | KT50 ([2]; elapsed time 2856 hr): 13.50 min | KT50 ([2]; elapsed time 3024 hr): 14.90 min | KT50 ([2]; elapsed time 3192 hr): 18.60 min | KT50 ([2]; elapsed time 3360 hr): 20.70 min | KT50 ([2]; elapsed time 3528 hr): 22.90 min | KT50 ([2]; elapsed time 3696 hr): 26.80 min | KT50 ([2]; elapsed time 3864 hr): 28.00 min | KT50 ([2]; elapsed time 4032 hr): 25.60 min | KT50 ([2]; elapsed time 4200 hr): 32.70 min | Retention Time (gas chromatography, as comparison of vapor pressure) [3]: 26.4 min | vapor pressure compared with transfluthrin and d,d-T80-prallethrin [3]: lower than transfluthrin, but higher than d,d-T80-prallethrin

SMILES: C#CC(OC(=O)C1C(C=C(C)C)C1(C)C)/C(C)=C/CC (stereo not shown) [Empenthrin]
efficacy of preventing mosquitoes from bloodsucking rats compared with transfluthrin [1]: lower effects of preventing mosquitoes from bloodsucking rats than transfluthrin | Potency Ratio (Etoc 100), of IC50 Value [1]: 0.7 | Potency Ratio (Etoc 100), of IC90 Value [1]: 1.2 | Retention Time (gas chromatography, as comparison of vapor pressure) [3, 4]: 20.1 min

SMILES: COCc1c(F)c(F)c(COC(=O)C2C(C=C(C)C)C2(C)C)c(F)c1F (stereo not shown) [Sample Chemical E, 2,3,5,6-tetrafluoro-4-methoxymethylbenzyl 3-(2-methyl-1-propenyl)-2,2-dimethylcyclopropanecarboxylate]
Potency Ratio (Etoc 100), of IC50 Value [1]: 13.7 | Potency Ratio (Etoc 100), of IC90 Value [1]: 22.4

SMILES: CC=CC1C(C(=O)OCc2c(F)c(F)c(C)c(F)c2F)C1(C)C (stereo not shown) [Sample Chemical G, 2,3,5,6-tetrafluoro-4-methylbenzyl 3-(1-propenyl)-2,2-dimethylcyclopropanecarboxylate]
Potency Ratio (Etoc 100), of IC50 Value [1]: 2.8 | Potency Ratio (Etoc 100), of IC90 Value [1]: 4.3

Retention Time (gas chromatography, as comparison of vapor pressure) [3]: 23.3 min
SMILES: C=CCC1=C(C)C(OC(=O)C2C(C)(C)C2(C)C)CC1=O (stereo not shown) [Terallethrin]
IC50 Value (amount of volatilization at a 50% rate of bloodsucking prevention) [1]: 0.3650 mg/h | IC90 Value (amount of volatilization at a 90% rate of bloodsucking prevention) [1]: 1.028 mg/h | efficacy of preventing mosquitoes from bloodsucking rats compared with transfluthrin [1]: lower effects of preventing mosquitoes from bloodsucking rats than transfluthrin | Potency Ratio (Etoc 100), of IC50 Value [1]: 2.2 | Potency Ratio (Etoc 100), of IC90 Value [1]: 3.8

SMILES: C#CC(OC(=O)C1C(C=C(F)Cl)C1(C)C)C(C)=CCC (stereo not shown) [Sample Chemical H, 1-ethynyl-2-methyl-2-pentenyl 3-(2-chloro-2-fluorovinyl)-2,2-dimethylcyclopropanecarboxylate]
Potency Ratio (Etoc 100), of IC50 Value [1]: 2.0 | Potency Ratio (Etoc 100), of IC90 Value [1]: 3.1

SMILES: CC(C)=CC1C(C(=O)OCc2c(F)c(F)c(C)c(F)c2F)C1(C)C (stereo not shown) [Sample Chemical F, 2,3,5,6-tetrafluoro-4-methylbenzyl 3-(2-methyl-1-propenyl)-2,2-dimethylcyclopropanecarboxylate]
Potency Ratio (Etoc 100), of IC50 Value [1]: 6.6 | Potency Ratio (Etoc 100), of IC90 Value [1]: 5.4

SMILES: C=CCC1=C(C)C(OC(=O)C2C(C=C(C)C)C2(C)C)CC1=O (stereo not drawn) [d1,d-T80-allethrin]
efficacy of preventing mosquitoes from bloodsucking rats compared with transfluthrin [1]: lower effects of preventing mosquitoes from bloodsucking rats than transfluthrin | Potency Ratio (Etoc 100), of IC50 Value [1]: 12.9 | Potency Ratio (Etoc 100), of IC90 Value [1]: 9.5 | Retention Time (gas chromatography, as comparison of vapor pressure) [3]: 26.6 min

SMILES: C#CCc1ccc(COC(=O)C2C(C=C(C)C)C2(C)C)o1 (stereo not drawn) [d-T80-furamethrin]
IC50 Value (amount of volatilization at a 50% rate of bloodsucking prevention) [1]: 0.1170 mg/h | IC90 Value (amount of volatilization at a 90% rate of bloodsucking prevention) [1]: 0.270 mg/h | efficacy of preventing mosquitoes from bloodsucking rats compared with transfluthrin [1]: lower effects of preventing mosquitoes from bloodsucking rats than transfluthrin | Potency Ratio (Etoc 100), of IC50 Value [1]: 6.9 | Potency Ratio (Etoc 100), of IC90 Value [1]: 14.4

SMILES: CC(C)=CC1C(C(=O)OCc2cccc(Oc3ccccc3)c2)C1(C)C (stereo not shown) [Phenothorin, reference compound]
Retention Time (gas chromatography, as comparison of vapor pressure) [3]: 33.7 min

SMILES: C#CCC1=C(C)C(OC(=O)C2C(C=C(C)C)C2(C)C)CC1=O (stereo not drawn) [d,d-T80-prallethrin]
IC50 Value (amount of volatilization at a 50% rate of bloodsucking prevention) [1]: 0.0081 mg/h | IC90 Value (amount of volatilization at a 90% rate of bloodsucking prevention) [1]: 0.039 mg/h | efficacy of preventing mosquitoes from bloodsucking rats compared with transfluthrin [1]: more efficacious than transfluthrin | Potency Ratio (Etoc 100), of IC50 Value [1]: 100.0 | Potency Ratio (Etoc 100), of IC90 Value [1]: 100.0 | Retention Time (gas chromatography, as comparison of vapor pressure) [3, 4]: 27.1 min
